Experimental data: patent publication US20110059982A1, “AZAINDOLE COMPOUNDS FOR TREATMENT OF CENTRAL NERVOUS SYSTEM DISORDERS” (MERCK PATENT GESELLSCHAFT MIT BESCHRANKTER HAFTUNG, priority 2008, published 2011)
pIC50, pKi: −log10 of the molar value.

Columns and labels:
Serotonin reuptake = target: T1, Serotonin reuptake (Rattus norvegicus, UniProt P31652); test: Serotonin re-uptake inhibition, synaptosomal, [3H]5-HT as tracer; format: biochemical; details: [3H]5-HT tracer, imipramine as reference, read-out: IC50 (nmol/L), Serotonin reuptake
T1 construct: from tissue
Procedure: Serotonin re-uptake inhibition was determined by means of synaptosomal re-uptake inhibition as described by Perovic & Muller et al. (Arzneim-Forsch. Drug. Res. 1995, 45:1145-1148) with [^3H]5-HT as tracer and imipramine as reference.

Norepinephrine uptake = target: T2, Norepinephrine uptake (Rattus norvegicus, UniProt Q63380); test: Norepinephrine uptake, [3H]NE as tracer; format: biochemical; details: [3H]NE tracer, protriptyline as reference; read-out: IC50 (nmol/L), Norepinephrine
T2 construct: from tissue
Procedure: Norepinephrine uptake was determined as described in the Perovic & Muller work with [^3H]NE as tracer and protriptyline as reference.

Dopamine uptake = target: T3, Dopamine uptake (Rattus norvegicus, UniProt P23977); test: [3H]Dopamine uptake inhibition in crude synaptosomal preparation; format: biochemical; details: rat brain synaptosomal preparation, [3H]DA tracer, GBR12909 as reference; read-out: IC50 (nmol/L), Dopamine
T3 construct: A crude synaptosomal membrane preparation from various regions of rat brain was prepared; from tissue; host or cells: crude synaptosomal preparation from rat brain (Sprague-Dawley)
Procedure: Dopamine uptake inhibition was determined as described by Janowsky et al. (Neurochem. 1986, 46:1272-1276) with [^3H]DA as tracer and GBR12909 as reference.
[^3H]Dopamine uptake inhibition is as provided below:
Tissue preparation—A crude synaptosomal membrane preparation from various regions of rat brain was prepared as described by Berger et al. (Eur. J. Pharmacol. 1985, 107:289-290). Brain tissue from adult male Sprague-Dawley rats (150-200 g) was homogenized in 10 volumes of ice-cold sucrose (0.32 M) using a Teflon glass homogenizer, and centrifuged at 1000 g for 10 min. […] The final protein concentration was 100-200 μg protein/mL, as determined by the method of Lowry et al. (J. Biol. Chem. 1951, 193:265-275).
The uptake of [^3H]dopamine in a crude synaptosomal preparation was measured as described by Harris et al. (Life Sci. 1973, 13:303-312). […] The filters were rinsed three times with 4 mL of ice-cold buffer (Tris-HCl, 50 mM, pH 7.7, containing 120 mM NaCl) and the radioactivity remaining on the filters was measured by conventional liquid scintillation spectrometry. […]
Assay tubes contained 250 μL of the tissue preparation, 50 μL of [^3H]dopamine (40 nM) 200 μL of buffer or various uptake inhibitors, and 1.0 mL of Krebs-Ringer bicarbonate buffer (pH 7.4). […] Radioactivity remaining on the filters was measured by conventional liquid scintillation spectrometry.

5-HT1A receptor = target: T4, 5-HT1A receptor (Homo sapiens, UniProt P08908); test: 5-HT1A binding assay, [3H]8-OH-DPAT as ligand; details: 8-OH-DPAT as reference; for pIC50: read-out: IC50 (nmol/L), 5-HT1A
T4 sequence (P08908 1-422): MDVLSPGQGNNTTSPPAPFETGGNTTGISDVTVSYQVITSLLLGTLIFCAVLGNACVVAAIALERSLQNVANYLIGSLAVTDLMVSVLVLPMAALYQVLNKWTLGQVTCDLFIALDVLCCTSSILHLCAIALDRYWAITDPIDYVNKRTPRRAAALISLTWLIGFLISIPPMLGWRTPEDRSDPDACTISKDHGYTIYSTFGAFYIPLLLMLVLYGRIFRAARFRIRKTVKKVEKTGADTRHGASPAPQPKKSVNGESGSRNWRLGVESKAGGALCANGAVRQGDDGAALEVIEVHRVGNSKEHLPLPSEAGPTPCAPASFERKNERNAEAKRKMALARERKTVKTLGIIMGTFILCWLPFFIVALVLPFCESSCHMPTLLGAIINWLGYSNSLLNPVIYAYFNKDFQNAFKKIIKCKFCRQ
Procedure: Binding properties at the 5-HT1A receptor were determined by means of the 5-HT1A binding assay as described in the literature by Mulheron et al. (J. Biol. Chem. 1994, 269:12954-12962) with [^3H]8-OH-DPAT as ligand and 8-OH-DPAT as reference.

T3 sequence (P23977 whole entry): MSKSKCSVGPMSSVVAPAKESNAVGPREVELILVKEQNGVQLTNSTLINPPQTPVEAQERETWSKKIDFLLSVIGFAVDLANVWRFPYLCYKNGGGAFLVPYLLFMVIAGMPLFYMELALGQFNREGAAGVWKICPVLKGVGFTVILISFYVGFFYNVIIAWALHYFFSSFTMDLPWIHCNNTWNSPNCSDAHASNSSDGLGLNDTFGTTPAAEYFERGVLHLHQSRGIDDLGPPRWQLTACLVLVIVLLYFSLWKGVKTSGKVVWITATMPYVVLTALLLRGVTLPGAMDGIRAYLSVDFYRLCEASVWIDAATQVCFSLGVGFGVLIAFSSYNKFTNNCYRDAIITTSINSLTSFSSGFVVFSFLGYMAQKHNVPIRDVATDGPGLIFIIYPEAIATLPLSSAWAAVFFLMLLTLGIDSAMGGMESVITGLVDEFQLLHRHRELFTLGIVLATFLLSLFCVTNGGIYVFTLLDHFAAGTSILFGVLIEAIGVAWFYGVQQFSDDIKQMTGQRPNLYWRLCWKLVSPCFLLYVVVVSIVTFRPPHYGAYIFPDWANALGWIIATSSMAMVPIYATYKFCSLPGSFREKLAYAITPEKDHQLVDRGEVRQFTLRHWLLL
T1 sequence (P31652 whole entry): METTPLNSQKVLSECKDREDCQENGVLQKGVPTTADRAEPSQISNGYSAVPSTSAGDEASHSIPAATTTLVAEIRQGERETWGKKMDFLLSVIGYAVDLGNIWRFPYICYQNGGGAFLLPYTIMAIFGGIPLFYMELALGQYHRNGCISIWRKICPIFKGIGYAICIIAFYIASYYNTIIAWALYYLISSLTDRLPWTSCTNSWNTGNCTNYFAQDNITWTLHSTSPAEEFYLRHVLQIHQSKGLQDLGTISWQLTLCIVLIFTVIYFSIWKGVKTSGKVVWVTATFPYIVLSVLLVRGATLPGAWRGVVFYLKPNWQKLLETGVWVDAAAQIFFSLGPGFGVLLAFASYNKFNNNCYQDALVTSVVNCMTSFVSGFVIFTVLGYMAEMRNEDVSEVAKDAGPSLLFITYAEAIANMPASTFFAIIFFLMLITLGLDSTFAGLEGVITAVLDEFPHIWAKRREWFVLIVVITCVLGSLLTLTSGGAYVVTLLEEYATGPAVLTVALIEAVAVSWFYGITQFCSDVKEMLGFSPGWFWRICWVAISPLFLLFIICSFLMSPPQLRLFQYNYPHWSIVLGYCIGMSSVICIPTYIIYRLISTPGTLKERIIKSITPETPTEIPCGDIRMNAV
T2 sequence (Q63380 1-617): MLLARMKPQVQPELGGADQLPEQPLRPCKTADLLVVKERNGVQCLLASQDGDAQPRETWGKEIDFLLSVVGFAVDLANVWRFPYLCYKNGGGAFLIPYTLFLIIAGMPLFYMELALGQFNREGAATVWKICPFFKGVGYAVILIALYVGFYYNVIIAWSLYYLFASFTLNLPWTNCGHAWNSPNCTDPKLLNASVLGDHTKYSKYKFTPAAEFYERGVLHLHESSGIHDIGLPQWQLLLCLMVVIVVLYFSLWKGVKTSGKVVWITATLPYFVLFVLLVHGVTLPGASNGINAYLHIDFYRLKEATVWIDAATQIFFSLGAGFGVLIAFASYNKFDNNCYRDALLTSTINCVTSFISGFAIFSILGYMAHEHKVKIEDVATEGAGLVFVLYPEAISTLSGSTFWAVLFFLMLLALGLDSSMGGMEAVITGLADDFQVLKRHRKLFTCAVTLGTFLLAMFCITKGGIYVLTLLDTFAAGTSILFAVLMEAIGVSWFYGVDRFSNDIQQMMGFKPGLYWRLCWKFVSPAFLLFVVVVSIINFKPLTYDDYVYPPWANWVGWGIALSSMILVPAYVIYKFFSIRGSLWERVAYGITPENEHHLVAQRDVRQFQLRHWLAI

| SMILES | pIC50 (Serotonin reuptake) | pIC50 (Norepinephrine uptake) | pIC50 (Dopamine uptake) | pKi (5-HT1A receptor) | pIC50 (5-HT1A receptor) | melting point [°C] |
| --- | --- | --- | --- | --- | --- | --- |
| N#Cc1cnc2[nH]cc(CCCCN3CCN(c4ccc5oc(C(N)=O)cc5c4)CC3)c2c1 [Example 1, 5-{4-[4-(5-Cyano-1H-pyrrolo[2,3-b]pyridine-3-yl)-butyl]-piperazin-1-yl}-benzofuran-2-carboxylic acid amide] | 7.00 to 7.29 | 6.82 to 7.00 | < 6.70 | 6.82 to 7.00 | 6.70 to 6.82 |  |
| N#Cc1ccc2[nH]cc(CCCCN3CCN(c4ccc5oc(C(N)=O)cc5c4)CC3)c2n1 [Example 2, 5-{4-[4-(5-Cyano-1H-pyrrolo[3,2-b]pyridine-3-yl)-butyl]-piperazin-1-yl}-benzofuran-2-carboxylic acid amide] | < 6.70 | 6.70 to 6.82 | < 6.70 | 7.30 to 9.00 | 7.00 to 7.29 |  |
| N#Cc1cnc2[nH]cc(CCCCN3CCC(Oc4ccc5c(c4)OCCO5)CC3)c2c1 [Example 3, 3-{4-[4-(2,3-Dihydro-benzo[1,4]dioxin-6-yloxy)-piperidin-1-yl]-butyl}-1H-pyrrolo[2,3-b]pyridine-5-carbonitrile] |  |  |  |  |  | 240 to 242 |
